Measured values reported in patent publication US6531468B2, “Diazabicyclooctane derivatives and therapeutic uses thereof” (Pfizer Inc, priority 2000, dated 2003).
Counter-ions that a name gives are not always drawn.

- melting point: 154 to 156 °C
SMILES: Fc1ccc(N2CC3CCC2CN3)cc1 (stereo not shown) (as salt: salt)
